Reference: ChEMBL document CHEMBL1131307, “Novel nonnucleoside inhibitors of HIV-1 reverse transcriptase. 8. 8-Aryloxymethyl- and 8-arylthiomethyldipyridodiazepinones” (J Med Chem, 1998)
pIC50: −log10 of the molar value.

Tests used:
[1] = system: Human immunodeficiency virus type 1 reverse transcriptase (Human immunodeficiency virus 1), Q72547 [R221A]; assay: Inhibitory activity against HIV-1 Y188L reverse transcriptase at 1 uM concentration
[2] = system: Human immunodeficiency virus type 1 reverse transcriptase (Human immunodeficiency virus 1), Q72547 [Y181C]; assay: Inhibitory activity against HIV-1 Y181C reverse transcriptase at 1 uM concentration
[3] = molecular target: Human immunodeficiency virus type 1 reverse transcriptase (Human immunodeficiency virus 1, UniProt Q72547); assay: Inhibitory activity against HIV-1 wild-type reverse transcriptase.
[4] = molecular target: Human immunodeficiency virus type 1 reverse transcriptase (Human immunodeficiency virus 1, UniProt Q72547, Y181C); assay: Inhibitory activity against HIV-1 Y181C reverse transcriptase.
[5] = molecular target: Human immunodeficiency virus type 1 reverse transcriptase (Human immunodeficiency virus 1) (UniProt Q72547); assay: Inhibitory activity against HIV-1 wild-type reverse transcriptase at 1 uM concentration
Homo sapiens [6] = species: Homo sapiens; assay: (§1) In vitro metabolism in human liver microsomes
[7] = molecular target: Human immunodeficiency virus type 1 reverse transcriptase (Human immunodeficiency virus 1, UniProt Q72547, Y188L); assay: Inhibitory activity against HIV-1 Y188L reverse transcriptase.
[8] = Compound was tested for its toxicity by using MTT toxicity assay.
[9] = molecular target: Human immunodeficiency virus type 1 reverse transcriptase (Human immunodeficiency virus 1, UniProt Q72547, K103N); assay: Inhibitory activity against HIV-1 Mutant Reverse transcriptase K103N
Homo sapiens [10] = species: Homo sapiens; assay: as §1; assay type: ADME
C8166 [11] = assay: (§2) Inhibitory activity against HIV-1 IIIB replication in C8166 cells.; assay type: functional; conditions: Homo sapiens
C8166 [12] = assay: as §2; assay type: functional, cell-based; conditions: Homo sapiens
[13] = system: Human immunodeficiency virus type 1 reverse transcriptase (Human immunodeficiency virus 1), Q72547 [R221A]; assay: Inhibitory activity against HIV-1 Y188L reverse transcriptase t 1 uM concentration

CCN1c2ncc(COc3cc[n+]([O-])cc3)cc2C(=O)N(C)c2ccc(Cl)nc21
inhibition [1]: 0%
inhibition [2]: 39%
pIC50 [3]: 6.64

CCN1c2ncc(COc3cccnc3)cc2C(=O)N(C)c2ccc(Cl)nc21
pIC50 [4]: 6.59
pIC50 [3]: 6.72

CCN1c2ncc(COc3cccc(F)c3)cc2C(=O)N(C)c2ccc(Cl)nc21
inhibition [1]: 16%
inhibition [5]: 24%
inhibition [2]: 11%

CC(C)Nc1cccnc1N1CCN(C(=O)c2cc3cc(NS(C)(=O)=O)ccc3[nH]2)CC1 [DELAVIRDINE]
Metabolism (Homo sapiens [6]): 144 pmol/min/mg

CCN1c2ncc(COc3cccc(C(N)=O)c3)cc2C(=O)N(C)c2ccc(Cl)nc21
pIC50 [7]: 6.47
CC30 [8]: 130000 nM
Metabolism (Homo sapiens [6]): 292 pmol/min/mg
pIC50 [4]: 6.55
pIC50 [3]: 7.52

CCN1c2ncc(CNc3ccccc3)cc2C(=O)N(C)c2ccc(Cl)nc21
pIC50 [9]: 7.30
CC30 [8]: > 60000 nM
pIC50 [4]: 6.43
pIC50 [3]: 7.10

Cc1ccnc2c1NC(=O)c1cccnc1N2C1CC1 [NEVIRAPINE]
Metabolism (Homo sapiens [10]): 2 pmol/min/mg

CCN1c2ncc(COc3ccncc3)cc2C(=O)N(C)c2cccnc21
pIC50 [7]: 5.26
pIC50 [9]: 7.30
CC30 [8]: > 256000 nM
pIC50 [4]: 6.85
pIC50 [3]: 7.70

CCN1c2ncc(CSc3ccncc3)cc2C(=O)N(C)c2ccc(Cl)nc21
Metabolism (Homo sapiens [6]): 372 pmol/min/mg
pIC50 [4]: 7.30
pIC50 [3]: 7.70

CCN1c2ncc(COc3ccccc3C(=O)OC)cc2C(=O)N(C)c2ccc(Cl)nc21
inhibition [1]: 2%
inhibition [5]: 25%
inhibition [2]: 2%

CCN1c2ncc(COc3cccc(C(=O)O)c3)cc2C(=O)N(C)c2ccc(Cl)nc21
pIC50 [9]: 6.72
CC30 [8]: 250000 nM
pIC50 [4]: 6.26
pIC50 [3]: 7.05

CCN1c2ncc(COc3cccc(C(=O)OC)c3)cc2C(=O)N(C)c2ccc(Cl)nc21
inhibition [1]: 11%
inhibition [2]: 23%
pIC50 [3]: 6.15

CCN1c2ncc(COc3ccc(F)cc3)cc2C(=O)N(C)c2ccc(Cl)nc21
pIC50 [4]: 5.78
pIC50 [3]: 6.55

CCN1c2ncc(C[S+]([O-])c3ccccc3)cc2C(=O)N(C)c2ccc(Cl)nc21 (configuration not stated)
pIC50 [7]: 5.62
CC30 [8]: 45000 nM
pIC50 [4]: 6.85
pIC50 [3]: 7.15

CCN1c2ncc(COc3cc[n+]([O-])cc3)cc2C(=O)N(C)c2ccc(F)nc21
inhibition [1]: 31%

CCN1c2ncc(COc3ccc(C(=O)OC)cc3)cc2C(=O)N(C)c2ccc(Cl)nc21
inhibition [1]: 0%
inhibition [2]: 33%
pIC50 [3]: 6.10

CCN1c2ncc(CN(C)c3ccccc3)cc2C(=O)N(C)c2ccc(Cl)nc21
inhibition [1]: 17%
inhibition [2]: 18%
pIC50 [3]: 6.23

CCN1c2ncc(COc3cc[n+]([O-])cc3)cc2C(=O)N(C)c2cccnc21
pIC50 [4]: 5.87
pIC50 [3]: 6.68

CCN1c2ncc(CSc3ccccc3)cc2C(=O)N(C)c2ccc(Cl)nc21
IC90 (C8166 [11]): 13 nM
pIC50 [7]: 7.52
pIC50 [9]: 7.52
pIC50 (C8166 [12]): 8.30
CC30 [8]: > 60000 nM
Metabolism (Homo sapiens [6]): 554 pmol/min/mg
pIC50 [4]: 8.00
pIC50 [3]: 7.70

CCN1c2ncc(CCc3ccccc3)cc2C(=O)N(C)c2ccc(Cl)nc21
pIC50 [7]: 6.02
pIC50 [9]: 7.30
Metabolism (Homo sapiens [6]): 288 pmol/min/mg
pIC50 [4]: 6.82
pIC50 [3]: 7.30

CCN1c2ncc(COc3ccc(O)cc3)cc2C(=O)N(C)c2ccc(Cl)nc21
inhibition [1]: 21%
inhibition [2]: 27%
pIC50 [3]: 6.68

CCN1c2ncc(COc3cccc(N)c3)cc2C(=O)N(C)c2ccc(Cl)nc21
IC90 (C8166 [11]): 36 nM
pIC50 [7]: 6.43
pIC50 (C8166 [12]): 7.72
pIC50 [4]: 7.00
pIC50 [3]: 7.30

CCN1c2ncc(CSc3[nH]cnc4nncc3-4)cc2C(=O)N(C)c2ccc(Cl)nc21
pIC50 [7]: 6.92
CC30 [8]: 40000 nM
Metabolism (Homo sapiens [6]): 336 pmol/min/mg
pIC50 [4]: 7.15
pIC50 [3]: 7.30

CCN1c2ncc(COc3cccc(OC)c3)cc2C(=O)N(C)c2ccc(Cl)nc21
pIC50 [9]: 6.89
pIC50 [4]: 6.55
pIC50 [3]: 7.00

CCN1c2ncc(CS(=O)(=O)c3ccccc3)cc2C(=O)N(C)c2ccc(Cl)nc21
pIC50 [7]: 4.96
Metabolism (Homo sapiens [6]): 322 pmol/min/mg
pIC50 [4]: 7.22
pIC50 [3]: 7.00

CCN1c2ncc(COc3cc[n+]([O-])c(C(F)(F)F)c3)cc2C(=O)N(C)c2ccc(Cl)nc21
pIC50 [4]: 6.57
pIC50 [3]: 6.92

CCN1c2ncc(CCc3ccncc3)cc2C(=O)N(C)c2ccc(Cl)nc21
pIC50 [7]: 5.73
pIC50 [9]: 6.92
Metabolism (Homo sapiens [6]): 145 pmol/min/mg
pIC50 [4]: 6.92
pIC50 [3]: 7.10

CCN1c2ncc(COc3cc[n+]([O-])c(C)c3)cc2C(=O)N(C)c2ccc(Cl)nc21
pIC50 [7]: 5.37
pIC50 [4]: 6.68
pIC50 [3]: 7.00

CCN1c2ncc(COc3ccnc(C)c3)cc2C(=O)N(C)c2ccc(Cl)nc21
pIC50 [7]: 6.64
pIC50 [4]: 7.52
pIC50 [3]: 7.52

CCN1c2ncc(C(=O)N(C)c3ccccc3)cc2C(=O)N(C)c2ccc(Cl)nc21
inhibition [5]: 15%
inhibition [2]: 20%
inhibition [13]: 46%

CCN1c2ncc(COc3cccc4[nH]ccc34)cc2C(=O)N(C)c2ccc(Cl)nc21
pIC50 [7]: 5.87
CC30 [8]: > 30000 nM
Metabolism (Homo sapiens [6]): 208 pmol/min/mg
pIC50 [4]: 6.70
pIC50 [3]: 6.48

CCN1c2ncc(COc3cccc([N+](=O)[O-])c3)cc2C(=O)N(C)c2ccc(Cl)nc21
pIC50 [4]: 6.46
pIC50 [3]: 6.77

CCN1c2ncc(NCc3ccccc3)cc2C(=O)N(C)c2ccc(Cl)nc21
inhibition [1]: 0%
pIC50 [4]: 6.41
pIC50 [3]: 6.59

CCN1c2ncc(COc3ccccc3O)cc2C(=O)N(C)c2ccc(Cl)nc21
pIC50 [4]: 6.46
pIC50 [3]: 7.00

CCN1c2ncc(COc3ccncc3)cc2C(=O)N(C)c2ccc(Cl)nc21
IC90 (C8166 [11]): 24 nM
pIC50 [9]: 7.15
pIC50 (C8166 [12]): 8.22
CC30 [8]: > 120000 nM
Metabolism (Homo sapiens [6]): 53 pmol/min/mg
pIC50 [4]: 6.59
pIC50 [3]: 7.15

CCN1c2ncc(COc3ccc4[nH]ccc4c3)cc2C(=O)N(C)c2ccc(Cl)nc21
pIC50 [4]: 7.05
pIC50 [3]: 6.51

CCN1c2ncc(N(C)C(=O)c3ccccc3)cc2C(=O)N(C)c2ccc(Cl)nc21
inhibition [1]: 13%
inhibition [2]: 22%
pIC50 [3]: 6.68

CCN1c2ncc(COc3ccccc3)cc2C(=O)N(C)c2ccc(Cl)nc21
IC90 (C8166 [11]): 113 nM
pIC50 [7]: 6.19
pIC50 [9]: 7.70
pIC50 (C8166 [12]): 7.30
CC30 [8]: > 60000 nM
Metabolism (Homo sapiens [6]): 171 pmol/min/mg
pIC50 [4]: 7.22
pIC50 [3]: 6.96

CCN1c2ncc(OCc3ccccc3)cc2C(=O)N(C)c2ccc(Cl)nc21
inhibition [1]: 0%
inhibition [5]: 20%
inhibition [2]: 0%

CCN1c2ncc(CNc3cccc(N)c3)cc2C(=O)N(C)c2ccc(Cl)nc21
CC30 [8]: 60000 nM
pIC50 [4]: 7.00
pIC50 [3]: 7.22

CCN1c2ncc(COc3ccncc3)cc2C(=O)N(C)c2ccc(F)nc21
pIC50 [9]: 7.40
CC30 [8]: 160000 nM
Metabolism (Homo sapiens [6]): 41 pmol/min/mg
pIC50 [4]: 6.72
pIC50 [3]: 7.30

CCN1c2ncc(COc3cccc(N(C)C)c3)cc2C(=O)N(C)c2ccc(Cl)nc21
inhibition [1]: 7%
inhibition [5]: 0%
inhibition [2]: 0%

CCN1c2ncc(COc3ccnc(C(F)(F)F)c3)cc2C(=O)N(C)c2ccc(Cl)nc21
Metabolism (Homo sapiens [6]): 206 pmol/min/mg
pIC50 [4]: 7.15
pIC50 [3]: 7.40

CCN1c2ncc(CSc3ncccn3)cc2C(=O)N(C)c2ccc(Cl)nc21
pIC50 [4]: 7.22
pIC50 [3]: 7.52
